Assay results: ChEMBL document CHEMBL1201862, “PubChem BioAssay data set” (2004)
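These data come from cells grown in 96-well plates and exposed to compound for 48 hours at five concentrations. The concentration for 50% growth inhibition is given as GI50.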 The source made the active and inactive calls. Rule as the data show it: active = GI50 up to about 1.1 µM and inactive = higher.

Legend:
Assay in all cases: NCI anticancer screen, dose series, 48 h
[1] = tested on: HOP-62
[2] = tested on: T47D
[3] = tested on: SNB-19
[4] = tested on: LOX IMVI
[5] = tested on: SNB-75
[6] = tested on: SN12C
[7] = tested on: COLO 205
[8] = tested on: HCT-116
[9] = tested on: SK-OV-3
[10] = tested on: PC-3
[11] = tested on: MDA-MB-435
[12] = tested on: SK-MEL-28
[13] = tested on: HL-60
[14] = tested on: UACC-62
[15] = tested on: KM12
[16] = tested on: SF-268
[17] = tested on: UACC-257
[18] = tested on: DU-145
[19] = tested on: UO-31
[20] = tested on: NCI-H226

Row | Compound | GI50 [1] | GI50 [2] | GI50 [3] | GI50 [4] | GI50 [5] | GI50 [6] | GI50 [7] | GI50 [8] | GI50 [9] | GI50 [10] | GI50 [11] | GI50 [12] | GI50 [13] | GI50 [14] | GI50 [15] | GI50 [16] | GI50 [17] | GI50 [18] | GI50 [19] | GI50 [20]
1 | c1cc2c(cc1NC1=NCCO1)CCC2 | > 10 µM (inactive) | > 10 µM (inactive) | 0.0869 µM (active) | > 10 µM (inactive) | 9.1 µM (inactive) | > 10 µM (inactive) | > 10 µM (inactive) | 4.49 µM (inactive) | > 10 µM (inactive) | > 10 µM (inactive) | 8.04 µM (inactive) | > 10 µM (inactive) | 5.61 µM (inactive) | > 10 µM (inactive) | > 10 µM (inactive) | > 10 µM (inactive) |  |  |  | 
2 | Fc1ccc2c3c([nH]c2c1)CCNC3 | > 100 µM (inactive) | > 100 µM (inactive) | > 100 µM (inactive) | > 100 µM (inactive) | > 100 µM (inactive) | > 100 µM (inactive) | > 100 µM (inactive) | > 100 µM (inactive) | > 100 µM (inactive) |  | 77.1 µM (inactive) | > 100 µM (inactive) | > 100 µM (inactive) | > 100 µM (inactive) | > 100 µM (inactive) | > 100 µM (inactive) | > 100 µM (inactive) | > 100 µM (inactive) | 31.8 µM (inactive) | 59.6 µM (inactive)
3 | CC1=NN(c2nc(N)nc(CSc3nc4n(c(=S)n3)CCN4)n2)C(C)(C)C1 | 14 µM (inactive) | 21.7 µM (inactive) | 37.9 µM (inactive) | 43.6 µM (inactive) | 15.3 µM (inactive) |  | 38.5 µM (inactive) | > 100 µM (inactive) | 19.1 µM (inactive) | 30.1 µM (inactive) | > 100 µM (inactive) | > 100 µM (inactive) | > 100 µM (inactive) | 43.1 µM (inactive) | > 100 µM (inactive) | 15.3 µM (inactive) | > 100 µM (inactive) |  |  | 15 µM (inactive)
4 | CCOC(=O)/C(=C\NC(C)(C)C)c1nc2ccccc2[nH]1 | 22.4 µM (inactive) |  | 39.3 µM (inactive) | 21.9 µM (inactive) | 23.7 µM (inactive) | 28.3 µM (inactive) | 16 µM (inactive) | 29.5 µM (inactive) | 30.1 µM (inactive) |  | 20 µM (inactive) | 16.4 µM (inactive) | 13.2 µM (inactive) | 16.3 µM (inactive) | 19.9 µM (inactive) | 23.7 µM (inactive) | 18.5 µM (inactive) | 29.9 µM (inactive) | 0.466 µM (active) | 22.9 µM (inactive)
5 | C[N+]12C=CC=C1C(N1CCCC1)c1scc(-c3ccccc3)c12 (stereo not given) | 41.7 µM (inactive) | 4.25 µM (inactive) | 10.6 µM (inactive) | 37.4 µM (inactive) | 3.99 µM (inactive) | 5.26 µM (inactive) | 15.1 µM (inactive) | 32.3 µM (inactive) | > 100 µM (inactive) | 17.1 µM (inactive) | 36.2 µM (inactive) | 37.2 µM (inactive) |  | 21 µM (inactive) | 8.55 µM (inactive) | 15.6 µM (inactive) |  | 52.2 µM (inactive) | > 100 µM (inactive) | 1.6 µM (inactive)
6 | COc1ccc(N2/C(=N/c3ccccc3)SC(=N/S(=O)(=O)c3ccccc3)/C2=N\S(=O)(=O)c2ccccc2)cc1 | 26.7 µM (inactive) | 0.298 µM (active) | 18.7 µM (inactive) |  | 19.4 µM (inactive) | 15.8 µM (inactive) | 16.4 µM (inactive) | 12.6 µM (inactive) |  | 16.7 µM (inactive) |  | 14.5 µM (inactive) | 12.1 µM (inactive) | 6.82 µM (inactive) | 38.8 µM (inactive) |  | 26.8 µM (inactive) |  | 19.2 µM (inactive) | 21.8 µM (inactive)
7 | COc1ccccc1NC(=O)O/N=C(/Cl)C(C)C | 12.5 µM (inactive) | 21 µM (inactive) | 30.9 µM (inactive) | 2.28 µM (inactive) | 0.889 µM (active) | 15.4 µM (inactive) | 2.4 µM (inactive) | 14.1 µM (inactive) | 18.7 µM (inactive) | 18.5 µM (inactive) |  | 13.6 µM (inactive) | 1.64 µM (inactive) | 17.5 µM (inactive) | 20.2 µM (inactive) | 16.6 µM (inactive) | 13.7 µM (inactive) | 18.8 µM (inactive) | 18.8 µM (inactive) | 20.8 µM (inactive)
8 | CC(C)(C)OC(=O)NCCCCCCC(=O)Cc1ccccc1 | > 100 µM (inactive) | > 100 µM (inactive) | > 100 µM (inactive) | > 100 µM (inactive) | > 100 µM (inactive) | > 100 µM (inactive) | 75.2 µM (inactive) | 84.3 µM (inactive) | > 100 µM (inactive) | > 100 µM (inactive) | > 100 µM (inactive) | > 100 µM (inactive) |  |  | > 100 µM (inactive) | > 100 µM (inactive) | > 100 µM (inactive) | > 100 µM (inactive) | > 100 µM (inactive) | > 100 µM (inactive)
9 | O=C(N/N=C\c1ccc(Cl)cc1)Nc1ccc2ccccc2c1 | 21.9 µM (inactive) | > 100 µM (inactive) | 30.4 µM (inactive) | > 100 µM (inactive) | 30.5 µM (inactive) | 40.6 µM (inactive) | > 100 µM (inactive) | 53.6 µM (inactive) | 94.6 µM (inactive) | 30.3 µM (inactive) | 49.7 µM (inactive) | 54.7 µM (inactive) |  | 34.5 µM (inactive) | 79.3 µM (inactive) | 26.9 µM (inactive) | 95.5 µM (inactive) | > 100 µM (inactive) | 53.7 µM (inactive) | > 100 µM (inactive)
10 | CC(=O)/C(C)=N/NC(=O)c1ccccc1O | > 10 µM (inactive) | > 100 µM (inactive) | > 10 µM (inactive) | > 10 µM (inactive) | > 10 µM (inactive) | > 10 µM (inactive) | > 10 µM (inactive) | > 10 µM (inactive) | > 10 µM (inactive) | > 100 µM (inactive) | > 100 µM (inactive) | > 10 µM (inactive) |  | 39.7 µM (inactive) | > 10 µM (inactive) | > 10 µM (inactive) | > 10 µM (inactive) | > 100 µM (inactive) | > 10 µM (inactive) | > 10 µM (inactive)
11 | O=C1/C(=C/c2ccc(Cl)cc2)NC(=S)N1CN1CCCCC1 | 87.9 µM (inactive) |  | 17.7 µM (inactive) | 37.8 µM (inactive) | 36.3 µM (inactive) | 40.6 µM (inactive) | 28 µM (inactive) | 34.4 µM (inactive) | 63.4 µM (inactive) | 48.4 µM (inactive) | 45.5 µM (inactive) | 61.2 µM (inactive) |  | 13.1 µM (inactive) | 38.7 µM (inactive) | 20.5 µM (inactive) |  | 45.8 µM (inactive) | 28.1 µM (inactive) | 32.3 µM (inactive)
